{"source": "patent US10265421B2", "about": "“Hyperpolarized esters as metabolic markers in MR” (BRACCO IMAGING S.P.A., priority 2013, dated 2019)", "key": {"rat cancer cells": {"test_system": "rat cancer cells", "assay": "Concentration dependent metabolism of hyperpolarized substrates in rat cancer cells", "assay_type": "cell-based", "settings": "approx. 1, 3.5 and 10 mM, 10 million cells, maximum peak intensity", "excerpt": "In all experiments 10 million cells were used. The experimental set-up from Example 2.b was applied. Data are shown as maximum peak intensity of either substrate or metabolite signals."}, "[1]": {"assay": "DNP conversion of hyperpolarized substrates in rat blood", "assay_type": "in vitro ADME", "settings": "2.5 ml rat blood, approx. 5 mM substrate", "method": "(§1) In all experiments 2.5 ml human blood or 2.5 ml rat blood was used. […] Data are presented as area under the curve of the metabolites divided by the substrate signal in the first spectrum and multiplied by 100 to obtain the unit, DNP conversion in percentage."}, "[2]": {"assay": "DNP conversion of hyperpolarized substrates in human blood", "assay_type": "in vitro ADME", "settings": "2.5 ml human blood, approx. 5 mM substrate", "method": "as §1"}, "CE1 from pig's liver": {"test_system": "CE1 from pig's liver", "assay": "Carboxyl esterase activity on different ethyl esters (1H NMR)", "assay_type": "biochemical", "settings": "26 μmol substrate, pH 7.5, 37° C., 60 min", "method": "The experiments were performed with commercially available CE1 from pig's liver.\nThe ethyl esters used as substrates are: ethyl acetoacetate (EAA); ethyl acetate (EA); ethyl butyrate (EB); ethyl pyroglutamate (EPG); ethyl pyruvate (EP); diethyl succinate (DES).\nIndividual samples of the substrates were all made in the following way: 26 μmol was weighted in an eppendorf tube. 550 μl deuterated phosphate buffer (200 mM, pH 7.5) was added and the substrate was brought into solution by whirl mixing. The solution was transferred to a 5 mm NMR tube and inserted in the spectrometer at 37° C. A reference experiment was acquired on the substrate solution without enzyme after which 10 μl of an esterase stock solution (37 U/ml in deuterated phosphate buffer) was added in the top of the tube. The sample was mixed and returned to the spectrometer. A series of thermal 1D 1H NMR experiments were recorded every 5 min for 60 min. The data were analyzed and presented as peak intensity of the product scaled to the peak intensity of the substrate signal in the first spectrum."}, "[3]": {"test_system": "rat liver cancer cells (Morris7777)", "assay": "In cell DNP conversion of hyperpolarized substrate in rat liver cancer cells", "assay_type": "cell-based", "settings": "whole Morris7777 cells, 10 million cells, 3.5 mM substrate, 37° C.", "method": "(§2) To the solution was added a DMSO solution of gadolinium complex [[α1,α4,α7-tris[(phenylmethoxy)methyl]-1,4,7,10-tetraazacyclododecane-1,4,7,10-tetraacetate(4-)]gadolinate(1-)]hydrogen (1.1 mg of a 100 μmol/g solution). The concentration of radical and gadolinium were 17 mM and 2.3 mM respectively.\n(§3) B) 30 μmol of solution A) was hyperpolarized. The sample was dissolved in 5 ml phosphate buffer (40 mM, pH 7.3). The pH after dissolution was 7.3.\n(§4) A) 10 million cells (either rat liver cancer cells (Morris7777) or human liver cancer cells (HEP-G2)) were harvested and redissolved in […] phosphate buffer (PBS). The cells in suspension were transferred to a 10 mm NMR tube and placed with a connecting tubing in a 14.1 T magnet at 37° C.\n(§5) A series of 30 degree pulses every 2 s (56 scans in total) was acquired. The acquisition was started just before injection of the hyperpolarized substrate.\nThe two substrates were co-polarized without mixing the substrates. Following dissolution in 5 ml phosphate buffer (40 mM pH 7.3) with addition of 2.5 μl NaOH to neutralize the pyruvic acid (which is thus converted into the pyruvate anion form), the substrate mixture was injected into 10 million cells in suspension. The experiment was performed as described in Example 2.b. […]"}, "carboxylesterase [4]": {"test_system": "carboxylesterase", "assay": "In vivo localized dynamic 13C MRS in healthy liver and liver cancer", "parameters": "species or system rat", "settings": "0.4 mmol/kg i.v.", "method": "One million McA-RH7777 cells have been suspended in 0.2 mL of Dulbecco's Modified Eagle's Medium (DMEM) and injected under the hepatic capsula of the liver left lobe of anesthetized Buffalo rats.\nThe sample was dissolved in 5 ml TRIS buffer (40 mM, pH 7) added with EDTA 100 mg/l. The pH after dissolution was 7.5.\nA total of 8 animals were used in the study. 4 rats were implanted with the tumour (i.e. tumour group) whereas the remaining animals were used as controls (i.e. liver group) in order to have a comparison between healthy and diseased tissue on the same strain. The metabolic fate of injected ethyl [1,3-^13C2]-acetoacetate was followed by means of a localised spectroscopy sequence which allows a selective acquisition of either tumour or healthy liver tissue. Acquisition started just before injecting the hyperpolarized substrate and comprised a series of 64 time-domain points sampled at a rate of 3 s. The applied flip angle was equal to 10 degrees."}, "[5]": {"settings": "non-tumor and tumor bearing mice; cited from earlier work"}, "[6]": {"test_system": "human liver cancer cells (HepG2)", "assay": "In cell DNP conversion of hyperpolarized substrate in human liver cancer cells", "assay_type": "cell-based", "settings": "whole HepG2 cells, 10 million cells, 3.5 mM substrate, 37° C.", "method": "as §2, §3, §4, §5"}, "[7]": {"settings": "anesthetized rat; cited from earlier work"}, "carboxylesterase [8]": {"test_system": "carboxylesterase", "assay": "General carboxylesterase activity in sonicated cancer cells (spectrophotometric, NA substrate)", "assay_type": "biochemical", "settings": "liver cancer cells (rat and human) and prostate cancer cells; 1 mM substrate, 10 min, 30 degrees", "method": "General carboxylesterase activity was determined spectrophotometrically using the carboxylesterase substrate 1-naphthyl acetate (NA) as described previously (Rudakova, 2011). Briefly, sonicated cells were incubated with 1 mM substrate in 150 mM phosphate buffer (pH 7.5), and generation of 1-naphtol was monitored at 322 nm and quantified from its extinction coefficient (2200 M−1 cm−1). The reaction is allowed to take place for 10 min at 30 degrees. […] Cells of different origin (rat hepatoma, Morris; human hepatoma, HepG2; human prostate carcinoma, PC-3; human breast carcinoma, MCF-7) were harvested and redissolved in phosphate buffer to a concentration of 10 million cells/ml. The sample composition was as follows: 923 μl phosphate buffer (150 mM pH 7.3)+77 μl NA solution (13 mM in acetone)+100 μl cells in suspension. The absorbance of the samples were compared to reference samples where acetone was added instead of substrate. The esterase activity was calculated using the extinction coefficient ε322=2200 M^−1 cm^−1."}, "carboxylesterase [9]": {"test_system": "carboxylesterase", "assay": "In vivo 13C CSI in rat liver with implanted Morris7777 tumor", "method": "4 anesthetized Buffalo rats were injected under the hepatic capsula of the liver left lobe with one million McA-RH7777 cells suspended in 0.2 mL of Dulbecco's Modified Eagle's Medium (DMEM) medium.\nThe sample was dissolved in 5 ml TRIS buffer (40 mM, pH 7) added with EDTA 100 mg/I. The pH after dissolution was 7.5.\nChemical Shift Imaging (CSI) maps were acquired on a approx. 8 mm coronal slice placed in the abdominal region of the rat. The in plane field of view was set to 40×55 mm^2 and the corresponding matrix size was 14×14."}}}
{"smiles": "CC(=O)C(=O)O", "note": "[[1-^13C]-pyruvate, reference compound]", "values": [{"measurement": "change of metabolite signal with increasing substrate concentration", "setting": "rat cancer cells", "result": "unchanged going from 3 mM to 10 mM"}, {"measurement": "build-up of metabolite signal in rat blood", "setting": "[1]", "result": "build-up of lactate is significant"}, {"measurement": "build-up of metabolite signal in human blood", "setting": "[2]", "result": "build-up of lactate is significant"}]}
{"smiles": "CCOC(=O)CCC(=O)OCC", "note": "[diethyl succinate]", "values": [{"measurement": "conversion (turnover) by CE1", "setting": "CE1 from pig's liver", "result": "overall fastest converted substrate"}]}
{"smiles": "CCO[13C](=O)C[13C](C)=O", "note": "[ethyl [1,3-^13C2]-acetoacetate]", "values": [{"measurement": "build-up of hyperpolarized acetoacetate anion from hydrolysis", "setting": "[3]", "result": "possible to follow the build-up of the product"}, {"measurement": "ramping up rate of metabolite signal, healthy liver with respect to cancer tissue", "setting": "carboxylesterase [4]; localized spectroscopy", "result": "≥ 2"}, {"measurement": "uptake and conversion in liver cells in vivo", "setting": "carboxylesterase [4]; healthy and diseased liver", "result": "taken up by both healthy and diseased liver cells and converted into its hyperpolarized metabolite"}, {"measurement": "conversion in vivo", "setting": "[5]", "result": "rapidly converted into acetoacetate"}, {"measurement": "build-up of hyperpolarized acetoacetate anion from hydrolysis", "setting": "[6]", "result": "possible to follow the build-up of the product"}]}
{"smiles": "CCO[13C](=O)C(C)=O", "note": "[ethyl [1-^13C]-pyruvate]", "values": [{"measurement": "uptake into brain", "setting": "[7]", "result": "rapid and preferential"}]}
{"smiles": "CCOC(C)=O", "note": "[ethyl acetate]", "values": [{"measurement": "factor by which diethyl succinate is converted faster than this substrate", "setting": "CE1 from pig's liver", "result": "ten times faster converted"}]}
{"smiles": "CCOC(=O)CC(C)=O", "note": "[ethyl acetoacetate]", "values": [{"measurement": "change of metabolite signal with increasing substrate concentration", "setting": "rat cancer cells", "result": "increases almost quantitatively with increasing substrate concentration"}, {"measurement": "carboxyl esterase activity (capacity of cells to hydrolyse substrate)", "setting": "carboxylesterase [8]", "result": "up to 95 mU/million cells"}, {"measurement": "build-up of metabolite signal in rat blood", "setting": "[1]", "result": "conversion of ethyl acetoacetate is seen"}, {"measurement": "build-up of metabolite signal in human blood", "setting": "[2]", "result": "no build-up of metabolite signal could be measured"}, {"measurement": "factor by which diethyl succinate is converted faster than this substrate", "setting": "CE1 from pig's liver", "result": "~2"}, {"measurement": "distribution of substrate signal (CSI map)", "setting": "carboxylesterase [9]; Morris hepatocellular carcinoma bearing rat, 0.4 mmol/kg i.v., 20 s acquisition", "result": "mainly observed in the tumour mass"}, {"measurement": "conversion in healthy liver during acquisition", "setting": "carboxylesterase [9]; healthy liver, 20 s acquisition time", "result": "almost completely converted"}]}
{"smiles": "CCCC(=O)OCC", "note": "[ethyl butyrate]", "values": [{"measurement": "factor by which diethyl succinate is converted faster than this substrate", "setting": "CE1 from pig's liver", "result": "~2"}]}
{"smiles": "CCOC(=O)[C@@H]1CCC(=O)N1", "note": "[ethyl pyroglutamate]", "values": [{"measurement": "conversion (turnover) by CE1", "setting": "CE1 from pig's liver", "result": "barely detectable"}]}
{"smiles": "CCOC(=O)C(C)=O", "note": "[ethyl pyruvate, reference compound]", "values": [{"measurement": "conversion (turnover) by CE1", "setting": "CE1 from pig's liver", "result": "no conversion at all could be measured"}]}
{"smiles": "CCOC(=O)CCC(=O)O", "note": "[mono-ester]", "values": [{"measurement": "conversion (turnover) by CE1", "setting": "CE1 from pig's liver", "result": "not a substrate for CE1"}]}
